In article PMC2642990, “The Glycogen-Binding Domain on the AMPK β Subunit Allows the Kinase to Act as a Glycogen Sensor” (Cell Metabolism, 2009):

How the values were obtained:
native rat liver AMPK = native rat liver AMPK (Rattus norvegicus, UniProt P80386); test: AMPK kinase assay (SAMS peptide), native rat liver AMPK in solution; type: biochemical; details: up to 100 mM
Procedure: We next tested the effect of glycogen on the activity of the native AMPK complex purified from rat liver ([Hawley et al., 1996]). […] The bovine liver glycogen inhibited AMPK completely with an IC50 (concentration causing half-maximal inhibition) of 30 ± 9 mM glucose equivalents (Figure 2A).
(§1) Figure 2 Allosteric Inhibition of AMPK by Different Glycogen Preparations (A) Concentration dependence of inhibition of native rat liver AMPK by preparations of bovine and rat liver glycogen; glycogen concentrations expressed as glucose produced after total hydrolysis. Data were fitted to an IC50 equation (see Supplemental Experimental Procedures), and curves were generated using the estimated best-fit parameters. (B) Concentration dependence of inhibition of native rat liver AMPK by bovine liver glycogen in the presence and absence of 200 μM AMP; curves were generated as in (A). (C) Inhibition by bovine liver glycogen of recombinant AMPK complex (myc-α1:β1:γ1) containing full-length (1–270) or truncated β1 subunit lacking the GBD (172–270). Complexes were expressed in CCL13 cells and purified by immunoprecipitation prior to assay with or without glycogen (200 mM glucose equivalents). Data are means ± SEM (n = 3). ^∗Activity different from control without glycogen by t test (p < 0.05). (D) Inhibition by bovine liver glycogen (200 mM glucose equivalents) of purified, native rat liver AMPK (a mixture of α1β1γ1 and α2β1γ1 complexes) that had been recovered by immunoprecipitation (IP) using anti-α1, anti-α2, or a mixture of anti-α1/-α2 antibodies or assayed in solution without immunoprecipitation. Results are expressed as percentages of the activity in controls without glycogen, and data are mean ± SEM (n = 3). (E) Absorption spectra of bovine and rat liver glycogen preparations in complex with iodine. […]
Purification of Native Rat Liver, AMPK, Recombinant AMPK, and AMPK Assays AMPK was purified from rat liver as far as the gel filtration step (Hawley et al., 1996). The kinase was assayed using the SAMS peptide (Davies et al., 1989). IC50 values for inhibition were estimated by fitting data using GraphPad Prism to the equation: Activity = Residual + Maximum - (Maximum × [Inhibitor]/(IC50+[Inhibitor])) where Residual is the activity in the presence of maximal inhibition, Maximum is the maximal inhibition and [inhibitor] is the concentration of the inhibitory molecule. For recombinant AMPK, constructs encoding myc-tagged α1, β1 and γ1 subunits of AMPK were co-transfected into CCL13 cells using modifications of previous methods (Woods et al., 1996). DNA (10 µg) was dissolved in sterile water (450 µl) to which 50 μl of 2.5 M CaCl2 was added, and the solution vortexed for 1 min. […]

[1] = target: T1, recombinant AMPK complex (myc-α1:β1:γ1) (Rattus norvegicus, UniProt P80386); test: recombinant wild-type AMPK expressed in CCL13 cells, assayed in anti-myc immunoprecipitates; type: biochemical; details: 2 mM; Figure 6C
T1 construct: recombinant AMPK complex (myc-α1:β1:γ1) containing full-length (1–270) or truncated β1 subunit lacking the GBD (172–270); made in house; host or cells: human CCL13 cells, co-transfected; isolated by anti-myc immunoprecipitation
T1 sequence (P80386 whole entry, the tested form may be a part): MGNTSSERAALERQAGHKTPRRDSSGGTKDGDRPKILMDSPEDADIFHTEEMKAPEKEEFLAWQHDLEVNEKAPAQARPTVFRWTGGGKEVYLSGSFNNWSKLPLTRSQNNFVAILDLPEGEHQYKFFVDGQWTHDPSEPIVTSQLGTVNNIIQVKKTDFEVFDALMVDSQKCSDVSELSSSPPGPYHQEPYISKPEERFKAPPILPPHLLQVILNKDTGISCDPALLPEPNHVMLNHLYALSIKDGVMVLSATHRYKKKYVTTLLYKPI
T1 sequence (P54645 13-559 partner limits assumed): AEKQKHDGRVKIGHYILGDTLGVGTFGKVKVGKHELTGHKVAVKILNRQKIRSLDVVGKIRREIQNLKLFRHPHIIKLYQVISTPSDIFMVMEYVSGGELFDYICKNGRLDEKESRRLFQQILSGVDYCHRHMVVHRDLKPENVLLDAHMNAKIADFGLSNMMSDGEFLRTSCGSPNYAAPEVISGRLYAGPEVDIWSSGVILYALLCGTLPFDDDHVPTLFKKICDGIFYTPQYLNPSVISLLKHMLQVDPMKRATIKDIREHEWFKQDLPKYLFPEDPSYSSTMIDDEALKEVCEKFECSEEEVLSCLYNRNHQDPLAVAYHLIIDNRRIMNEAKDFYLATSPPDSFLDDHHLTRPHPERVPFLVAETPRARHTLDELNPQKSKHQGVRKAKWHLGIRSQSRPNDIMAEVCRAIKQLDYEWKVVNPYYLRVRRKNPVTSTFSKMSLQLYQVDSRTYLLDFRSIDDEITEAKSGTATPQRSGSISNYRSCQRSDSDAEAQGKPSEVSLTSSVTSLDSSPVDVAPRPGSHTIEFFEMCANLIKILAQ
T1 sequence (P80385 whole entry partner, the tested form may be a part): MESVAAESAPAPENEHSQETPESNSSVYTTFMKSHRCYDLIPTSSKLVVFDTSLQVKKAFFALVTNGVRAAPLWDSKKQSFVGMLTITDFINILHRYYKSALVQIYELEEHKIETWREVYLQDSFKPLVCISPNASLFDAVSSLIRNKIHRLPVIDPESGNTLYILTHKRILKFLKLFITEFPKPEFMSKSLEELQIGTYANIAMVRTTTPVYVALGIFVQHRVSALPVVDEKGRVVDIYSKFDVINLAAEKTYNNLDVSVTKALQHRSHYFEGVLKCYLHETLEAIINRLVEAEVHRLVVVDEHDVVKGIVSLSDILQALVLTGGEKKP
From the text: as §1, with “(D) Inhibition by bovine liver glycogen (200 mM glucose equivalents) of purified, native rat liver AMPK (a mixture of α1β1γ1 and α2β1γ1 complexes) that had been recovered by immunoprecipitation (IP) using anti-α1, anti-α2, or a mixture of anti-α1/-α2 antibodies or assayed in solution without immunoprecipitation.” left out, “3).” for “3). (E) Absorption spectra of bovine and rat liver glycogen preparations in complex with iodine.”

rat β1 GBD = details: cited from earlier work; for concentration that displaces the β1 GBD from glycogen: ref Polekhina et al. (2005)
[2] = target: bacterially expressed rat β1 GBD; set-up: method as in Koay et al. (2007); details: NMR method; ref Koay et al. (2007); read-out: KD for binding to rat β1 GBD; cited from earlier work
[3] = target: T2, recombinant α1β1γ1 complex with β1 GBD mutations (W100G/W133A and others) (Rattus norvegicus, UniProt P80386, W100G/W133A); test: recombinant AMPK with GBD point mutations in β1, assayed in immunoprecipitates; type: biochemical; details: 2 mM; Figure 4B
T2 construct: we made mutations in full-length β1 coexpressed with α1 and γ1 in CCL13 cells; made in house; host or cells: human CCL13 cells, co-transfected; isolated by anti-myc immunoprecipitation
T2 sequence (P80386 2-270 W100G/W133A): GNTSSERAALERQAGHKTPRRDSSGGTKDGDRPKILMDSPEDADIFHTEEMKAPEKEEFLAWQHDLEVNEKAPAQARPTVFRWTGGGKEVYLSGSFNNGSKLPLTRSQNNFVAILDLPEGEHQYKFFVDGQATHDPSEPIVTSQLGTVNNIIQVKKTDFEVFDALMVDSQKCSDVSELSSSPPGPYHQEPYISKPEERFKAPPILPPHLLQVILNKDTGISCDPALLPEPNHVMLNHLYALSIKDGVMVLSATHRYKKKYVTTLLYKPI
T2 sequence (P54645 whole entry partner): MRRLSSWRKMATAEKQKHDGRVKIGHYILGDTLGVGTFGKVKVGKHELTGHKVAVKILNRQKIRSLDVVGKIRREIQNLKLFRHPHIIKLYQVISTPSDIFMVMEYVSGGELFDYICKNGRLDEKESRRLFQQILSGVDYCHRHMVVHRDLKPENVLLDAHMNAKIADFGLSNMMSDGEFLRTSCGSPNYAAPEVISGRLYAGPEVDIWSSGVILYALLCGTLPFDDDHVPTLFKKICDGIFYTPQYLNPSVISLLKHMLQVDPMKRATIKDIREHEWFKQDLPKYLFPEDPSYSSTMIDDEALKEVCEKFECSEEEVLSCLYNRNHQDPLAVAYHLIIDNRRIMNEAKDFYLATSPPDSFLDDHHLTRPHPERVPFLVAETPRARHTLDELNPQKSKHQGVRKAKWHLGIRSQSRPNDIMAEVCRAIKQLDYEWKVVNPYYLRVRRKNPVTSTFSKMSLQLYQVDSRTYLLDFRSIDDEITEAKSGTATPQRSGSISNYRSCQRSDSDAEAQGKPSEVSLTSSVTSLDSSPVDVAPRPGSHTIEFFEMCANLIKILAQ
T2 sequence (P80385 whole entry partner): as the sequence (P80385 whole entry partner, the tested form may be a part) above
From the text: To test whether mutations that interfered with the binding of glycogen to the GBD also affected inhibition of AMPK by glycogen, we made mutations in full-length β1 coexpressed with α1 and γ1 in CCL13 cells, isolated the complex by immunoprecipitation via the myc tag on α1, and assayed the kinase activity in the presence and absence of glycogen. The activities were adjusted to correct for slight variation in recovery of the α1 subunit assessed by blotting (inset in Figure 3A). […] Because all of these assays were conducted in resuspended immunoprecipitates, the degree of inhibition of the wild-type was < 50%, as discussed in the previous section. […]
Figure 3 Effect of β Subunit Mutations on Inhibition of Recombinant AMPK Complexes by Glycogen (A) Myc-α1, γ1, and β1 with the wild-type sequence or the indicated mutations were expressed in CCL13 cells, immunoprecipitated, and assayed ± bovine liver glycogen (200 mM glucose equivalents); results are mean ± SEM (n = 3). […] (C) Myc-α1, γ1, and β1 with the wild-type sequence or with W100G/W133A mutations were expressed in CCL13 cells, immunoprecipitated using anti-myc (left) or anti-FLAG (right) antibodies, and analyzed by western blotting using anti-myc antibodies (top panels) or a mixture of anti-β1 and -γ1 antibodies (bottom panels). […]

GBD = target: T3, GBD (Rattus norvegicus, UniProt P80386); test: binding of linear oligosaccharides to the GBD (data not shown)
T3 construct: The rat β1 GBD (residues 70-172 was cloned into pGEX6P2, expressed in Escherichia coli (BL21)); GST (N); made in house; host or cells: E. coli BL21 (inferred)
T3 sequence (P80386 70-172): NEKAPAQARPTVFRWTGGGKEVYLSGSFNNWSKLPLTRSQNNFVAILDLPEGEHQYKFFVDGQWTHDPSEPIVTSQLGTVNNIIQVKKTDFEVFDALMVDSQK

Sequence of native rat liver AMPK (P80386 2-270): as the sequence (P80386 2-270 W100G/W133A) above, with G99W, A132W counted along it
Sequence of native rat liver AMPK (P54645 whole entry partner): as the sequence (P54645 whole entry partner) above
Sequence of native rat liver AMPK (Q09137 whole entry partner): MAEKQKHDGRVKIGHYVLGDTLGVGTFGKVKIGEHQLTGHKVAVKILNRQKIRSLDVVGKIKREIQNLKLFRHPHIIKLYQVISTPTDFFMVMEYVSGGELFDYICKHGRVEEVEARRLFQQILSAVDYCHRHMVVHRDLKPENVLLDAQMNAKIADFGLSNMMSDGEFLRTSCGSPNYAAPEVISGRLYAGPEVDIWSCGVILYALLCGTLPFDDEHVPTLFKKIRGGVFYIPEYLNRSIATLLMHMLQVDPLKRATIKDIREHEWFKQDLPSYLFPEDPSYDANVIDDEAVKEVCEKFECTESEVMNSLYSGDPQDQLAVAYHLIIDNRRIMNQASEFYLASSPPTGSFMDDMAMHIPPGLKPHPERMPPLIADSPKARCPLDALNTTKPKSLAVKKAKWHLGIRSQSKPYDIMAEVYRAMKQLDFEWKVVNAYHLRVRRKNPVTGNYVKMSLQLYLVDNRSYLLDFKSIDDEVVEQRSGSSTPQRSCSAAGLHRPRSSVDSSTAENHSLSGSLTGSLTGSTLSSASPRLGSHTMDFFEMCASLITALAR
Sequence of native rat liver AMPK (P80385 whole entry partner): as the sequence (P80385 whole entry partner, the tested form may be a part) above

OC[C@H]1O[C@H](O[C@H]2[C@H](O)[C@@H](O)C(O)O[C@@H]2CO)[C@H](O)[C@@H](O)[C@@H]1O (mixture of isomers) [maltose]
inhibition at concentrations up to 100 mM (native rat liver AMPK): did not cause any inhibition

CO[C@H]1O[C@H](CO)[C@@H](O[C@H]2O[C@H](CO)[C@@H](O)[C@H](O)[C@H]2O)[C@H](O)[C@H]1O [Oligosaccharide 8, methyl α-maltoside]
inhibition of wild-type recombinant α1β1γ1 [1]: not significant

OC[C@H]1O[C@@H]2O[C@H]3[C@H](O)[C@@H](O)[C@@H](O[C@H]4[C@H](O)[C@@H](O)[C@@H](O[C@H]5[C@H](O)[C@@H](O)[C@@H](O[C@H]6[C@H](O)[C@@H](O)[C@@H](O[C@H]7[C@H](O)[C@@H](O)[C@@H](O[C@H]8[C@H](O)[C@@H](O)[C@@H](O[C@H]1[C@H](O)[C@H]2O)O[C@@H]8CO)O[C@@H]7CO)O[C@@H]6CO)O[C@@H]5CO)O[C@@H]4CO)O[C@@H]3CO [β-cyclodextrin]
competition with glycogen for binding to the GBD (rat β1 GBD; ref Polekhina et al. (2003, 2005)): can compete
Kd [2]: 300 µM
inhibition of W100G/W133A mutant [3]: abolished

maltoheptaose
binding to the GBD (GBD): could bind
concentration that displaces the β1 GBD from glycogen (rat β1 GBD): greater than 1 mM
Kd [2]: 400 µM
inhibition at concentrations up to 100 mM (native rat liver AMPK): almost no inhibition

maltohexaose
binding to the GBD (GBD): could bind
concentration that displaces the β1 GBD from glycogen (rat β1 GBD): greater than 1 mM
Kd [2]: 700 µM
inhibition at concentrations up to 100 mM (native rat liver AMPK): almost no inhibition
